According to patent US20200018743A1, “MINI-CANCERS UTILIZATION FOR PERSONALIZED CANCER DRUG REGIMENS” (THE JOHNS HOPKINS UNIVERSITY, priority 2017, published 2020):
“Also recorded” adds a separate entry of the source. Like-named read-outs stand apart in the source and are kept apart here. Starred links: 1 amine or outer side, 2 acyl side, 3 side chain; linkers in the order of their positions; H or OH if unused. Positions of bridges follow the written chain, without caps; N, C: chain ends. Non-standard residues stand in square brackets, D forms with d. Residues, ends and D or L forms follow the SMILES beside them. Chains are numbered I, II in the order given. Actinocin(9to1) = Cc1c2oc3c(C)ccc(C(=O)[*:1])c3nc-2c(C(=O)[*:2])c(N)c1=O; NMeV = CN[C@H](C(=O)O)C(C)C; Sar = CNCC(=O)O

What was measured:
[1] = system: CCA8 sister CCA PDO lines; experiment: 129-drug panel on the 6 sister PDO lines of CCA8; assay type: cell-based, human
Excerpt: (§1) This intra tumor functional heterogeneity was investigated by calculating the standard deviation of a drug response across all PDO lines established from a patient tumor. […] The inventors chose one of the cancer specimens (CCA8) for further in-depth studies of intra-tumor functional heterogeneity and the identification of its drivers. […] To visualize this phenomenon, we calculated the standard deviation of each drug effect across the 6 PDOs (FIG. 20D). […] To this end, we first chose drugs that induced 30% or less viability in at least one of the 6 sister CCA PDO lines when tested at a 10 uM concentration. […] Of note, there is no known genetic alteration (mutational or otherwise) to predict the response of human cancers to proteasome inhibitors.
(§2) PDOs were plated in 96-well or 384-well plates and cultured for 3 days. Next, media was changed with drug-containing media. The initial screen was performed at a concentration of 10 uM. After 4 days, viability was determined in each well with Cell TiterGlo (Cat #: G7572, Promega, Wis.) following the manufacturer's instruction. […] was measured with a plate reader (Perkin-Elmer EnVision Plate Reader). Drugs that induced less than 50% viability were chosen for future studies.

[2] = system: 27 liver cancer PDO lines; experiment: High throughput screening of NCI VII 129-drug panel on 27 liver cancer PDO lines (CellTiter-Glo); assay type: cell-based, human; conditions: for effectiveness across the cohort of primary liver mini-cancers / all 27 liver cancer PDO lines: 10 uM, CellTiter-Glo; for inter patient effect (mean cell viability per patient cancer specimen): across the 5 patients' cancers
Excerpt: To pick out inter patient divergent drugs (i.e., drugs with discordant effect across the 5 patients), we calculated the mean cell viability per patient cancer specimen by averaging the effect of the drugs across all PDO lines established for the same patient. This mean cell viability per patient is a measure of how the tumor, as a whole, responds to a certain drug. Next, we calculated the standard deviation of the 5 means (one per patient) and ordered the data in decreasing order of the standard deviation. […] To further visualize the inter-patient divergence of drug effects, the inventors constructed a heat map of drug responses per each patient (utilizing the mean cell viability over all clones from each patient, FIG. 20B).
as §1
Take out Matrigel from −20 C and keep at 4 C overnight. Also keep pipette tips at 4 C overnight. Count cells. Mix cells with Matrigel so that you have 200 cells per uL of Matrigel. […] Plate 2 rows, then stop. Wait till the Matrigel is solid. Then add 100 uL of growth passage media. Then continue till all plate is filled up with cells. Place plate into incubator. Take picture with white light. After 4 days replace the media with media containing drugs (90 uL media+10 uL drug work solution). Use a multi-pipette.
as §2

CCA PDO = experiment: Drug testing on a CCA PDO line read by white light / bright field images; assay type: cell-based, human; conditions: for effect on PDO (shape, number or size of cystic PDO structures): 9-drug library, 10 uM, white light images; for effect on PDO growth (cytocidal / cytostatic): over 96 hours
Procedure: In preliminary studies, the inventors have obtained resection cancer tissue from 10 CCA patients. […] Pilots experiments were performed with a 9-drug library, at a standard HT screening drug concentration of 10 uM. For positive control, the inventors used 10% Triton X, while for negative control the inventors used DMSO at same concentration used to dissolve drugs. […] As proof of concept, the inventors then expanded to the 1,600 drug JHCCL Hopkins library (data not shown). […] This scale-up required a reproducible and accurate read out. We chose CellTiter-Glo (Promega), an ATP-based cytotoxicity assay that quantifies metabolically active cells. […] Next, the inventors sought to determine IC50s. […] Next, the inventors performed whole exome sequencing on a subset of these CCA PDOs. […] The inventors next performed pilot trials with high-content imaging. We utilized DRAQ5 (red) to stain nuclei and YOYO-1 (green in FIG. 9) to stain dead cells. In this experiment, we treated a CCA PDO culture with Gemcitabine, at concentrations from 10 to 0.1 uM. […] FIG. 10 is a representative 100× Hematoxylin and Eosin image of a PDX tumor.
Initial drug testing experiments were performed on one PDO line, with a 9-drug library, at a standard HT screening drug concentration of 10 uM. For these experiments, we utilized a CCA PDO line. For positive control, we used 10% Triton X, while for negative control we used DMSO […] same concentration used to dissolve drugs. For these experiments, we utilized white light images and equated the killing effect of drugs into shrinking of PDO cystic structures. […] To this end, we tested the 5 chemotherapy agents typically used in CCA patients, as well as several combinations (FIG. 18C). […] Next, we sought a fast, reproducible and relatively inexpensive read out of cell death (or inhibited proliferation). We chose CellTiter-Glo (Promega), which is an ATP-based cytotoxicity assay that quantifies metabolically active cells. […] Therefore, we have used CellTiter-Glo for all subsequent experiments. […] By using CellTiter-Glo, we quantified the viability of cells treated with single agents as well as combinations (as in FIG. 18C).

HCC = HCC patients; cited from earlier work

Molecule	killing effect / activity across the 6 PDO lines ([1]; CCA8, 10 uM)	effectiveness across the cohort of primary liver mini-cancers / all 27 liver cancer PDO lines [2]	other results
O=C(/C=C/c1cccc(S(=O)(=O)Nc2ccccc2)c1)NO [Belinostat]	moderate activity in 1/6 PDO lines and generally poor activity in 5/6	–	–
CC(C)C[C@H](NC(=O)[C@H](CCc1ccccc1)NC(=O)CN1CCOCC1)C(=O)N[C@@H](Cc1ccccc1)C(=O)N[C@@H](CC(C)C)C(=O)[C@@]1(C)CO1 [Carfilzomib, carifilzomib]	effective across the 6 PDO lines	pan-effective	–
Cc1cc(Nc2ncc(Cl)c(Nc3ccccc3S(=O)(=O)C(C)C)n2)c(OC(C)C)cc1C1CCNCC1 [Ceritinib]	high activity in 3/6 and almost no activity in the rest 3/6 PDO lines	–	–
N.N.[Cl][Pt][Cl] [Cisplatin]	uniformly ineffective	–	effect on PDO (shape, number or size of cystic PDO structures) (CCA PDO): no effect; also recorded: did not appear to have any effect; effect on PDO (shape, number or size of cystic PDO structures) (CCA PDO; listed as cisplatin): no effect on the round shape of PDO; effectiveness in CCAs tested (CCA PDO; all 6 CCAs tested): ineffective; effect on PDO growth (cytocidal / cytostatic) (CCA PDO): ineffective; also recorded: unaffected PDO growth
Cc1c2oc3c(C)ccc(C(=O)N[C@@H]4C(=O)N[C@H](C(C)C)C(=O)N5CCC[C@H]5C(=O)N(C)CC(=O)N(C)[C@@H](C(C)C)C(=O)O[C@@H]4C)c3nc-2c(C(=O)N[C@@H]2C(=O)N[C@H](C(C)C)C(=O)N3CCC[C@H]3C(=O)N(C)CC(=O)N(C)[C@@H](C(C)C)C(=O)O[C@@H]2C)c(N)c1=O [Dactinomycin, dactinomycin] (I: T[dV]P[Sar][NMeV] / II: T[dV]P[Sar][NMeV]; ester I:1-I:C, II:1-II:C; linker I:N-II:N via Actinocin(9to1))	–	–	inter patient effect (mean cell viability per patient cancer specimen) [2]: work well in just 1 cancer
COc1cccc2c1C(=O)c1c(O)c3c(c(O)c1C2=O)C[C@@](O)(C(=O)CO)C[C@@H]3O[C@H]1C[C@H](N)[C@H](O)[C@H](C)O1 [Doxorubicin]	–	–	inter patient effect (mean cell viability per patient cancer specimen) [2]: work in majority of cancers, but not in all of them
COc1cccc2c1C(=O)c1c(O)c3c(c(O)c1C2=O)C[C@@](O)(C(=O)CO)C[C@@H]3O[C@H]1C[C@H](N)[C@@H](O)[C@H](C)O1 [Epirubicin]	wide response	–	–
Nc1ccn([C@@H]2O[C@H](CO)[C@@H](O)C2(F)F)c(=O)n1 [Gemcitabine]	moderate activity in 1/6 and poor activity in 5/6 PDO lines	–	effect on PDO (shape, number or size of cystic PDO structures) (CCA PDO): moderate cytostatic but not a cytocydal effect; effect on PDO growth (cytocidal / cytostatic) (CCA PDO): moderate cytostatic, but not cytocidal effect; effect on PDO growth (cytocidal / cytostatic) (CCA PDO; listed as Gemicitabine): partially effective; inter patient effect (mean cell viability per patient cancer specimen) [2]: work in majority of cancers, but not in all of them
CC(=O)[C@]1(O)Cc2c(O)c3c(c(O)c2[C@@H](O[C@H]2C[C@H](N)[C@H](O)[C@H](C)O2)C1)C(=O)c1ccccc1C3=O [Idarubicin, idarubicin]	effective across the 6 PDO lines	pan-effective	–
CC[C@H](Nc1ncnc2[nH]cnc12)c1nc2cccc(F)c2c(=O)n1-c1ccccc1 [Idelalisib]	uniformly ineffective	–	–
CC(C)C[C@H](NC(=O)CNC(=O)c1cc(Cl)ccc1Cl)B(O)O [Ixazomib, ixazomib]	effective across the 6 PDO lines	pan-effective	–
CS(=O)(=O)CCNCc1ccc(-c2ccc3ncnc(Nc4ccc(OCc5cccc(F)c5)c(Cl)c4)c3c2)o1 [Lapatinib]	uniformly ineffective	–	–
N#Cc1ccc(C(c2ccc(C#N)cc2)n2cncn2)cc1 [Letrozole]	uniformly ineffective	–	–
N[C@@H](Cc1ccc(N(CCCl)CCCl)cc1)C(=O)O [Melphalan]	uniformly ineffective	–	–
CO[C@@]12[C@H](COC(N)=O)C3=C(C(=O)C(C)=C(N)C3=O)N1C[C@@H]1N[C@@H]12 [Mitomycin, mitomycin]	–	–	killing effect / activity across the 6 PDO lines [1]: effective across the 6 PDO lines
COC(=O)C[C@](O)(CCCC(C)(C)O)C(=O)O[C@@H]1C(OC)=C[C@]23CCCN2CCc2cc4c(cc2[C@H]13)OCO4 [Omacetaxine, omacetaxine]	wide response	–	–
Cc1[nH]c2ccccc2c1CCNCc1ccc(/C=C/C(=O)NO)cc1 [Panobinostat, panobinostat]	–	pan-effective	–
C/C=C1\NC(=O)[C@H]2CSSCC/C=C/[C@H](CC(=O)N[C@H](C(C)C)C(=O)N2)OC(=O)[C@H](C(C)C)NC1=O [Romidepsin, romidepsin]	effective across the 6 PDO lines	pan-effective	–
CNC(=O)c1cc(Oc2ccc(NC(=O)Nc3ccc(Cl)c(C(F)(F)F)c3)cc2)ccn1 [Sorafenib]	–	–	inter patient effect (mean cell viability per patient cancer specimen) [2]: work in majority of cancers, but not in all of them; improvement of survival (HCC): 3 months; side effects (HCC): severe side effects
O=C1CCC(N2C(=O)c3ccccc3C2=O)C(=O)N1 (stereo not shown) [Thalidomide]	uniformly ineffective	–	–
CCC1=C[C@@H]2CN(C1)Cc1c([nH]c3ccccc13)[C@@](C(=O)OC)(c1cc3c(cc1OC)N(C)[C@H]1[C@@](O)(C(=O)OC)[C@H](OC(C)=O)[C@]4(CC)C=CCN5CC[C@]31[C@@H]54)C2 [Vinorelbine]	–	–	effect on PDO (shape, number or size of cystic PDO structures) (CCA PDO): effective
COc1cccc2c1C(=O)c1c(O)c3c(c(O)c1C2=O)C[C@@](O)(C(C)=O)C[C@@H]3O[C@H]1C[C@H](N)[C@H](O)[C@H](C)O1 [daunorubicin]	–	pan-effective	–
CC[C@@]1(O)C(=O)OCc2c1cc1n(c2=O)Cc2cc3c(CN(C)C)c(O)ccc3nc2-1 [topotecan]	–	pan-effective	–
CC[C@]1(O)C[C@H]2CN(CCc3c([nH]c4ccccc34)[C@@](C(=O)OC)(c3cc4c(cc3OC)N(C=O)[C@H]3[C@@](O)(C(=O)OC)[C@H](OC(C)=O)[C@]5(CC)C=CCN6CC[C@]43[C@@H]65)C2)C1 [vincristine]	–	–	inter patient effect (mean cell viability per patient cancer specimen) [2]: work well in just 1 cancer
plicamycin	effective across the 6 PDO lines	pan-effective	–
